Reference: publication PMC7169845, “Synthesis and Bioactivity of Phthalimide Analogs as Potential Drugs to Treat Schistosomiasis, a Neglected Disease of Poverty” (Pharmaceuticals, 2020)

SMILES | melting point [°C]
Cc1ccc2c(c1)C(=O)N(C(C)c1nc3ccccc3n1Cc1cn(-c3ccncc3)nn1)C2=O (stereo not shown) [6n’, 5-Methyl-2-(1-(1-((1-(pyridin-4-yl)-1H-1,2,3-triazol-4-yl)methyl)-1H-benzo[d]imidazol-2-yl)ethyl)isoindoline-1,3-dione] | 236 to 238
Cc1ccc2c(c1)C(=O)N(C(CC(C)C)c1nc3ccccc3n1Cc1cn(-c3ccc(F)cc3)nn1)C2=O (stereo not shown) [6a, 2-(1-(1-((1-(4-Fluorophenyl)-1H-1,2,3-triazol-4-yl)methyl)-1H-benzo[d]imidazol-2-yl)-3-methylbutyl)-5-methylisoindoline-1,3-dione] | 208 to 210
Cc1ccc2c(c1)C(=O)N(C(CC(C)C)c1nc3ccccc3n1Cc1cn(-c3ccc(C(F)(F)F)cc3)nn1)C2=O (stereo not shown) [6e, 5-Methyl-2-(3-methyl-1-(1-((1-(4-(trifluoromethyl)phenyl)-1H-1,2,3-triazol-4-yl)methyl)-1H-benzo[d]imidazol-2-yl)butyl)isoindoline-1,3-dione] | 218 to 220
Cc1ccc2c(c1)C(=O)N(C(C)c1nc3ccccc3n1Cc1cn(-c3ccc(F)cc3F)nn1)C2=O (stereo not shown) [6p’, 2-(1-(1-((1-(2,4-Difluorophenyl)-1H-1,2,3-triazol-4-yl)methyl)-1H-benzo[d]imidazol-2-yl)ethyl)-5-methylisoindoline-1,3-dione] | 206 to 208
Cc1ccc2c(c1)C(=O)N(C(C)c1nc3ccccc3n1Cc1cn(-c3ccccc3F)nn1)C2=O (stereo not shown) [6o’, 2-(1-(1-((1-(2-Fluorophenyl)-1H-1,2,3-triazol-4-yl)methyl)-1H-benzo[d]imidazol-2-yl)ethyl)-5-methylisoindoline-1,3-dione] | 185 to 187
CCC(C)C(c1nc2ccccc2n1Cc1cn(-c2c(F)c(F)c(F)c(F)c2F)nn1)N1C(=O)c2ccccc2C1=O (stereo not shown) [6t, 2-(2-Methyl-1-(1-((1-(perfluorophenyl)-1H-1,2,3-triazol-4-yl)methyl)-1H-benzo[d]imidazol-2-yl)butyl)isoindoline-1,3-dione] | 86 to 88
COc1ccc(-n2cc(Cn3c(C(CC(C)C)N4C(=O)c5ccc(C)cc5C4=O)nc4ccccc43)nn2)cc1 (stereo not shown) [6h, 2-(1-(1-((1-(4-Methoxyphenyl)-1H-1,2,3-triazol-4-yl)methyl)-1H-benzo[d]imidazol-2-yl)-3-methylbutyl)-5-methylisoindoline-1,3-dione] | 101 to 103
CC(C)CC(c1nc2ccccc2n1Cc1cn(-c2ccc(F)cc2F)nn1)N1C(=O)c2ccccc2C1=O (stereo not shown) [6o, 2-(1-(1-((1-(2,4-Difluorophenyl)-1H-1,2,3-triazol-4-yl)methyl)-1H-benzo[d]imidazol-2-yl)-3-methylbutyl)isoindoline-1,3-dione] | 126 to 128
CCC(C)C(c1nc2ccccc2n1Cc1cn(-c2ccc(F)cc2F)nn1)N1C(=O)c2ccc(C)cc2C1=O (stereo not shown) [6r, 2-(1-(1-((1-(2,4-Difluorophenyl)-1H-1,2,3-triazol-4-yl)methyl)-1H-benzo[d]imidazol-2-yl)-2-methylbutyl)-5-methylisoindoline-1,3-dione] | 89 to 91
Cc1ccc2c(c1)C(=O)N(C(CC(C)C)c1nc3ccccc3n1Cc1cn(-c3ccc(F)cc3F)nn1)C2=O (stereo not shown) [6j, 2-(1-(1-((1-(2,4-Difluorophenyl)-1H-1,2,3-triazol-4-yl)methyl)-1H-benzo[d]imidazol-2-yl)-3-methylbutyl)-5-methylisoindoline-1,3-dione] | 72 to 74
CCC(C)C(c1nc2ccccc2n1Cc1cn(-c2ccccc2F)nn1)N1C(=O)c2ccc(C)cc2C1=O (stereo not shown) [6q, 2-(1-(1-((1-(2-Fluorophenyl)-1H-1,2,3-triazol-4-yl)methyl)-1H-benzo[d]imidazol-2-yl)-2-methylbutyl)-5-methylisoindoline-1,3-dione] | 114 to 116
Cc1ccc2c(c1)C(=O)N(C(CC(C)C)c1nc3ccccc3n1Cc1cn(-c3c(F)cccc3F)nn1)C2=O (stereo not shown) [6k, 2-(1-(1-((1-(2,6-Difluorophenyl)-1H-1,2,3-triazol-4-yl)methyl)-1H-benzo[d]imidazol-2-yl)-3-methylbutyl)-5-methylisoindoline-1,3-dione] | 71 to 73
CC(C)C(c1nc2ccccc2n1Cc1cn(-c2c(F)cccc2F)nn1)N1C(=O)c2ccccc2C1=O (stereo not shown) [6u’, 2-(1-(1-((1-(2,6-Difluorophenyl)-1H-1,2,3-triazol-4-yl)methyl)-1H-benzo[d]imidazol-2-yl)-2-methylpropyl)isoindoline-1,3-dione] | 91 to 93
Cc1ccc(-n2cc(Cn3c(C(CC(C)C)N4C(=O)c5ccc(C)cc5C4=O)nc4ccccc43)nn2)cc1 (stereo not shown) [6b, 5-Methyl-2-(3-methyl-1-(1-((1-(p-tolyl)-1H-1,2,3-triazol-4-yl)methyl)-1H-benzo[d]imidazol-2-yl)butyl)isoindoline-1,3-dione] | 160 to 162
Cc1ccc2c(c1)C(=O)N(C(CC(C)C)c1nc3ccccc3n1Cc1cn(-c3c(F)c(F)c(F)c(F)c3F)nn1)C2=O (stereo not shown) [6d, 5-Methyl-2-(3-methyl-1-(1-((1-(perfluorophenyl)-1H-1,2,3-triazol-4-yl)methyl)-1H-benzo[d]imidazol-2-yl)butyl)isoindoline-1,3-dione] | 128 to 130
CC(c1nc2ccccc2n1Cc1cn(-c2c(F)c(F)c(F)c(F)c2F)nn1)N1C(=O)c2ccccc2C1=O (stereo not shown) [6b’, 2-(1-(1-((1-(Perfluorophenyl)-1H-1,2,3-triazol-4-yl)methyl)-1H-benzo[d]imidazol-2-yl)ethyl)isoindoline-1,3-dione] | 215 to 217
Cc1ccc2c(c1)C(=O)N(C(C)c1nc3ccccc3n1Cc1cn(-c3c(F)cccc3F)nn1)C2=O (stereo not shown) [6q’, 2-(1-(1-((1-(2,6-Difluorophenyl)-1H-1,2,3-triazol-4-yl)methyl)-1H-benzo[d]imidazol-2-yl)ethyl)-5-methylisoindoline-1,3-dione] | 166 to 168
Cc1ccc2c(c1)C(=O)N(C(C)c1nc3ccccc3n1Cc1cn(-c3ccc(F)cc3)nn1)C2=O (stereo not shown) [6h’, 2-(1-(1-((1-(4-Fluorophenyl)-1H-1,2,3-triazol-4-yl)methyl)-1H-benzo[d]imidazol-2-yl)ethyl)-5-methylisoindoline-1,3-dione] | 222 to 224
CC(C)C(c1nc2ccccc2n1Cc1cn(-c2ccc(F)cc2F)nn1)N1C(=O)c2ccccc2C1=O (stereo not shown) [6t’, 2-(1-(1-((1-(2,4-Difluorophenyl)-1H-1,2,3-triazol-4-yl)methyl)-1H-benzo[d]imidazol-2-yl)-2-methylpropyl)isoindoline-1,3-dione] | 100 to 102
CC(C)CC(c1nc2ccccc2n1Cc1cn(-c2c(F)cccc2F)nn1)N1C(=O)c2ccccc2C1=O (stereo not shown) [6p, 2-(1-(1-((1-(2,6-Difluorophenyl)-1H-1,2,3-triazol-4-yl)methyl)-1H-benzo[d]imidazol-2-yl)-3-methylbutyl)isoindoline-1,3-dione] | 198 to 200
CCC(C)C(c1nc2ccccc2n1Cc1cn(-c2c(F)c(F)c(F)c(F)c2F)nn1)N1C(=O)c2ccc(C)cc2C1=O (stereo not shown) [6s, 5-Methyl-2-(2-methyl-1-(1-((1-(perfluorophenyl)-1H-1,2,3-triazol-4-yl)methyl)-1H-benzo[d]imidazol-2-yl)butyl)isoindoline-1,3-dione] | 196 to 198

The remaining lines, values ahead:

melting point [°C] | SMILES
185 to 187 | Cc1ccc2c(c1)C(=O)N(C(C)c1nc3ccccc3n1Cc1cn(-c3ccccc3)nn1)C2=O (stereo not shown) [6l’, 5-Methyl-2-(1-(1-((1-phenyl-1H-1,2,3-triazol-4-yl)methyl)-1H-benzo[d]imidazol-2-yl)ethyl)isoindoline-1,3-dione]
97 to 99 | CC(c1nc2ccccc2n1Cc1c[nH]nn1)N1C(=O)c2ccccc2C1=O (stereo not shown) [6g’, 2-(1-(1-((1H-1,2,3-Triazol-4-yl)methyl)-1H-benzo[d]imidazol-2-yl)ethyl)isoindoline-1,3-dione]
181 to 183 | CC(c1nc2ccccc2n1Cc1cn(Cc2ccccc2)nn1)N1C(=O)c2ccccc2C1=O (stereo not shown) [6e’, 2-(1-(1-((1-Benzyl-1H-1,2,3-triazol-4-yl)methyl)-1H-benzo[d]imidazol-2-yl)ethyl)isoindoline-1,3-dione]
94 to 96 | CC(c1nc2ccccc2n1Cc1cn(-c2c(F)cccc2F)nn1)N1C(=O)c2ccccc2C1=O (stereo not shown) [6f’, 2-(1-(1-((1-(2,6-Difluorophenyl)-1H-1,2,3-triazol-4-yl)methyl)-1H-benzo[d]imidazol-2-yl)ethyl)isoindoline-1,3-dione]
115 to 117 | CC(C)C(c1nc2ccccc2n1Cc1cn(-c2ccccc2F)nn1)N1C(=O)c2ccccc2C1=O (stereo not shown) [6s’, 2-(1-(1-((1-(2-Fluorophenyl)-1H-1,2,3-triazol-4-yl)methyl)-1H-benzo[d]imidazol-2-yl)-2-methylpropyl)isoindoline-1,3-dione]
195 to 197 | CC(c1nc2ccccc2n1Cc1cn(-c2ccc(F)cc2F)nn1)N1C(=O)c2ccccc2C1=O (stereo not shown) [6d’, 2-(1-(1-((1-(2,4-Difluorophenyl)-1H-1,2,3-triazol-4-yl)methyl)-1H-benzo[d]imidazol-2-yl)ethyl)isoindoline-1,3-dione]
187 to 189 | CC(c1nc2ccccc2n1Cc1cn(-c2ccccc2)nn1)N1C(=O)c2ccccc2C1=O (stereo not shown) [6a’, 2-(1-(1-((1-Phenyl-1H-1,2,3-triazol-4-yl)methyl)-1H-benzo[d]imidazol-2-yl)ethyl)isoindoline-1,3-dione]
142 to 144 | Cc1ccc2c(c1)C(=O)N(C(C)c1nc3ccccc3n1Cc1cn(Cc3ccccc3)nn1)C2=O (stereo not shown) [6m’, 2-(1-(1-((1-Benzyl-1H-1,2,3-triazol-4-yl)methyl)-1H-benzo[d]imidazol-2-yl)ethyl)-5-methylisoindoline-1,3-dione]
186 to 188 | CC(c1nc2ccccc2n1Cc1cn(-c2ccccc2F)nn1)N1C(=O)c2ccccc2C1=O (stereo not shown) [6c’, 2-(1-(1-((1-(2-Fluorophenyl)-1H-1,2,3-triazol-4-yl)methyl)-1H-benzo[d]imidazol-2-yl)ethyl)isoindoline-1,3-dione]
142 to 144 | Cc1ccc2c(c1)C(=O)N(C(CC(C)C)c1nc3ccccc3n1Cc1cn(Cc3ccccc3)nn1)C2=O (stereo not shown) [6f, 2-(1-(1-((1-Benzyl-1H-1,2,3-triazol-4-yl)methyl)-1H-benzo[d]imidazol-2-yl)-3-methylbutyl)-5-methylisoindoline-1,3-dione]
